One test concerns the target T1, TcdB CPD (Clostridioides difficile, UniProt P18177).
T1 construct: The compounds were screened against the recombinantly expressed cysteine protease domain; made in house
The test is described as follows: biochemical. The arrangement: species or system Clostridium difficile.

A further test has as its target TcdB protease (Clostridioides difficile, UniProt P18177). Kind of test: biochemical. The arrangement: species or system Clostridium difficile.
Test [1] relates to human foreskin fibroblast (HFF cells). Kind of test: cells. It counts as cell-based.
The next test deals with TcdB (Clostridioides difficile, UniProt P18177). Kind of test: Mouse TcdB toxigenic model. It counts as in vivo. Particulars: mice i.p. 25 ng TcdB pretreated with 100 nM ebselen.
Chain of TcdB (P18177 2-2366 limits assumed): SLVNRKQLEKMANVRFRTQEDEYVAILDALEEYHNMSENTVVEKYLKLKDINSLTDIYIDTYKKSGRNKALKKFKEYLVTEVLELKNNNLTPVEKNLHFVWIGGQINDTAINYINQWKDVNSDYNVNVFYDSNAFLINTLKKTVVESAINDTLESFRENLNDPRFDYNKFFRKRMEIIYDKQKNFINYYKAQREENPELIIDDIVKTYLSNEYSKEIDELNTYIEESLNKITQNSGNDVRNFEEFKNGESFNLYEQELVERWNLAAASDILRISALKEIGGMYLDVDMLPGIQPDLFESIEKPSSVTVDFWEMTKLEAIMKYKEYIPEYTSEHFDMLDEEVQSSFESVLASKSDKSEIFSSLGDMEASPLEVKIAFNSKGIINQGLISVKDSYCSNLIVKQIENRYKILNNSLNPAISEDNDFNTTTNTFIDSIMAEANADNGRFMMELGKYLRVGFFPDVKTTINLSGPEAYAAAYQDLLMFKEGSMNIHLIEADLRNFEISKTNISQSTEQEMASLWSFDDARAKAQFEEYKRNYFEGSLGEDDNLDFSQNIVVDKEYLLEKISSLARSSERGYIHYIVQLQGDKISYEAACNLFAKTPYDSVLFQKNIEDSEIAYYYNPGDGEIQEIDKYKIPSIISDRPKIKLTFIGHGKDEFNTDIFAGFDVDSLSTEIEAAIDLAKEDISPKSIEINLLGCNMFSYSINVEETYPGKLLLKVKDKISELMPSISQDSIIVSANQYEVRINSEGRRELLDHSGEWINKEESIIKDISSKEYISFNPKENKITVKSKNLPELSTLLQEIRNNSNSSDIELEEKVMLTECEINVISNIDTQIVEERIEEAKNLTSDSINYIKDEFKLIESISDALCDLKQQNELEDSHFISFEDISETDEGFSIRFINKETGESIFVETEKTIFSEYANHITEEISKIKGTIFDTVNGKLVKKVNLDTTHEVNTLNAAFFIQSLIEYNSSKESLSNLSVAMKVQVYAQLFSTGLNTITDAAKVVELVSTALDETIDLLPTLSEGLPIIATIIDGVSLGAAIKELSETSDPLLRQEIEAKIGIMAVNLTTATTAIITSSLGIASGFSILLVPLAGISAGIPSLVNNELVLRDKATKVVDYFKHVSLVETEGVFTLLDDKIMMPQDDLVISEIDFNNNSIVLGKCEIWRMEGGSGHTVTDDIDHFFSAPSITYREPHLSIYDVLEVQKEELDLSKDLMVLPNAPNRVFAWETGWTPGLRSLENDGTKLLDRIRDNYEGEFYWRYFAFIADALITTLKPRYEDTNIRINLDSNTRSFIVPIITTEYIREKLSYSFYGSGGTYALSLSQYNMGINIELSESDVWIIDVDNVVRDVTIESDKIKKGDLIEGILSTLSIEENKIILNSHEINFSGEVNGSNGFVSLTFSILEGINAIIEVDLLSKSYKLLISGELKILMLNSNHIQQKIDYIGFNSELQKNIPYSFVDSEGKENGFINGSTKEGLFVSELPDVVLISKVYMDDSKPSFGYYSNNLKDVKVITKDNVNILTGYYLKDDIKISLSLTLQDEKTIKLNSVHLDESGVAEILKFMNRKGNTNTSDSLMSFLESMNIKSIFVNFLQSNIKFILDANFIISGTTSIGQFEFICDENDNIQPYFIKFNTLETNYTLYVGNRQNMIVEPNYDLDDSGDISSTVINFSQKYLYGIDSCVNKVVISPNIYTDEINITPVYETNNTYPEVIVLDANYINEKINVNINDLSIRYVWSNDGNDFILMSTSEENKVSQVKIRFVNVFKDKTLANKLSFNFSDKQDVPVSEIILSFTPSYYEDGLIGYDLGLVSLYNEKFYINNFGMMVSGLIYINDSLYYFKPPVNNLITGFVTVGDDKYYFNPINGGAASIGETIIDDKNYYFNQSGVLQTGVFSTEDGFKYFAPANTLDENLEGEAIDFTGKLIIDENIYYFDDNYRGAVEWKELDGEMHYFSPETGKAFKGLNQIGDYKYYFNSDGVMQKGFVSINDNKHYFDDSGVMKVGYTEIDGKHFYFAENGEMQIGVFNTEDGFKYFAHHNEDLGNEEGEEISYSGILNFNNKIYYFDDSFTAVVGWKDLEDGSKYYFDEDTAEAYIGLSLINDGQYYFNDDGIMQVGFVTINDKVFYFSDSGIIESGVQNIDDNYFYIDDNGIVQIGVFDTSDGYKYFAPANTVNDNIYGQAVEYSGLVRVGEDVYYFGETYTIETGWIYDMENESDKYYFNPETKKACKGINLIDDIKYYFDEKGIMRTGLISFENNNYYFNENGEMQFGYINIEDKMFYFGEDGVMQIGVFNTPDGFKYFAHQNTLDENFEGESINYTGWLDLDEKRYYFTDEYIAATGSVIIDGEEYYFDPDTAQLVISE
Another test has as its target full length TcdB (Clostridioides difficile, UniProt P18177). Particulars: read-out: IC50 of inhibition of labeling of the CPD, IP6 activated, AWP-19 labeling.

Each structure is given as a SMILES string. pEC50, pIC50: −log10 of the molar value. Like-named read-outs stand apart in the source and are kept apart here.

As usually defined, the pIC50 is −log10 of the IC50, conventionally taken in molar units. As a reminder, the pEC50 is the negative decadic logarithm of the EC50, by convention in mol/L.

T1 sequence (P18177 544-799 limits assumed): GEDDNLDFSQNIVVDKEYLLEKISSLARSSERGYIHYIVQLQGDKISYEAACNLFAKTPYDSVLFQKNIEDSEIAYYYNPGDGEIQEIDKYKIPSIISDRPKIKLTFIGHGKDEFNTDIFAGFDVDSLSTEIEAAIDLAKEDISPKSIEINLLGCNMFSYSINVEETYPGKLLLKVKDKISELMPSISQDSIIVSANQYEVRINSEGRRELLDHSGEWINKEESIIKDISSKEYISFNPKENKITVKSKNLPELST
Chain of TcdB protease (P18177 544-797 limits assumed): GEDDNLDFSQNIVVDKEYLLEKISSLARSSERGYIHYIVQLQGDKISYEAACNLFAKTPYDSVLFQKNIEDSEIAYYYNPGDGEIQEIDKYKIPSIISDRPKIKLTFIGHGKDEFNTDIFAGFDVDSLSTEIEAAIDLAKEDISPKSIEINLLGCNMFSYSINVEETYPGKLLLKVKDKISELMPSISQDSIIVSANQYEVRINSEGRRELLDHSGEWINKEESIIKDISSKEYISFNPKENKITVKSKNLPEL

`COCCNC(=O)Cn1sc2nc(C)cc(C)c2c1=O` [STF 102766]: the pIC50 at TcdB CPD was 5.62. Compound `COc1ccc(Cl)cc1NC(=O)c1ccccc1[Se][Se]c1ccccc1C(=O)Nc1cc(Cl)ccc1OC` [MG-7, 2,2′-diselane-1,2-diylbis[N-(5-chloro-2-methoxyphenyl)benzamide]] had a pIC50 against TcdB protease of 5.02. Regarding `COC(=O)N1CCN(C(=O)Cn2sc3nc(C)cc(C)c3c2=O)CC1` [STF 102635], the pIC50 against TcdB CPD was 5.31. The compound `O=c1c2ccccc2[se]n1-c1ccccc1O` [MG-174, 2-(2-hydroxyphenyl)-1,2-benzoselenazol-3-one] had a pIC50 at TcdB protease of 5.31. With `COc1ccc(C)cc1-n1[se]c2ccccc2c1=O` [MG-2, 2-(2-methoxy-5-methylphenyl)-1,2-benzoselenazol-3-one], on TcdB protease, the pIC50 is 5.25.

As to `O=C(Nc1ccc(F)cc1F)c1ccccc1[Se][Se]c1ccccc1C(=O)Nc1ccc(F)cc1F` [MG-33, 2,2′-diselane-1,2-diylbis[N-(2,4-difluorophenyl)benzamide]], the pIC50 on TcdB protease was 5.57. Compound `Cc1cc(C)c2c(=O)n(CC(=O)NC(C)CCc3ccccc3)sc2n1` (stereo not drawn) [STF 102645] showed a pIC50 against TcdB CPD of 5.40.

In turn, `O=C(Nc1ccc(F)cc1Cl)c1ccccc1[Se][Se]c1ccccc1C(=O)Nc1ccc(F)cc1Cl` [MG-40, 2,2′-diselane-1,2-diylbis[N-(2-chloro-4-fluorophenyl)benzamide]] showed a pIC50 against TcdB protease of 5.13.

The compound `O=C(Nc1ccccc1F)c1ccccc1[Se][Se]c1ccccc1C(=O)Nc1ccccc1F` [MG-31, 2,2′-diselane-1,2-diylbis[N-(2-fluorophenyl)benzamide]] gave a pIC50 against TcdB protease of 5.31. In the case of `O=c1c2ccccc2[se]n1-c1ccc(Cl)cc1F` [MG-34, 2-(4-chloro-2-fluorophenyl)-1,2-benzoselenazol-3-one], the pIC50 at TcdB protease was 5.19. With `COc1ccc(C(C)(C)C)cc1-n1[se]c2ccccc2c1=O` [MG-8, 2-(2-methoxy-5-t-butylphenyl)-1,2-benzoselenazol-3-one], on TcdB protease, the pIC50 was 5.07. In turn, `Cc1ccc(NC(=O)c2ccccc2[Se][Se]c2ccccc2C(=O)Nc2ccc(C)cc2Cl)c(Cl)c1` [MG-12, 2,2′-diselane-1,2-diylbis[N-(2-chloro-4-methylphenyl)benzamide]] had a pIC50 against TcdB protease of 5.40.

The compound `Cc1ccc(Cl)c(NC(=O)c2ccccc2[Se][Se]c2ccccc2C(=O)Nc2cc(C)ccc2Cl)c1` [MG-10, 2,2′-diselane-1,2 - diylbis[N-(2-chloro-5-methylphenyl)benzamide]] had a pIC50 against TcdB protease of 5.13.

As for `Cc1cc(C)c2c(=O)n(CC(=O)NCc3ccc4c(c3)OCO4)sc2n1` [STF 102654], on TcdB CPD, the pIC50 is 5.41.

With `CCOCCCNC(=O)Cn1sc2nc(C)cc(C)c2c1=O` [STF 102644], the pIC50 on TcdB CPD was 5.55.

As to `COc1ccc(-n2[se]c3ccccc3c2=O)c(C)c1` [MG-1, 2-(4-methoxy-2-methylphenyl)-1,2-benzoselenazol-3-one], the pIC50 against TcdB protease is 5.19. On to `O=c1c2ccccc2[se]n1-c1ncccc1O` [MG-48, 2-(3-hydroxypyridin-2-yl)-1,2-benzoselenazol-3-one], for which the pIC50 at TcdB protease is 5.13. `O=C(Nc1ccc(F)c(Cl)c1)c1ccccc1[Se][Se]c1ccccc1C(=O)Nc1ccc(F)c(Cl)c1` [MG-43, 2,2′-diselane-1,2-diylbis[N-(3-chloro-4-fluorophenyl)benzamide]]: on TcdB protease, the pIC50 was 5.29. With `Cc1cc(C)c2c(=O)n(CC(=O)NCCCSC3CCCCC3)sc2n1` [STF 102625], at TcdB CPD, the pIC50 was 5.88.

Compound `Cc1ccc(-n2[se]c3ccccc3c2=O)cc1` [MG-13, 2-(4-methylphenyl)-1,2-benzoselenazol-3-one] gave a pIC50 against TcdB protease of 5.31. As to `O=c1c2ccccc2[se]n1-c1ccccc1` [Ebselen, 2-phenyl-1,2-benzoselenazol-3-one], the results for the pIC50 on TcdB protease and at full length TcdB were 5.29 and 7.76, respectively. Besides, the pEC50 was 7.68 in test [1] (read-out: EC50 of blocking cell rounding) and 6.66 in test [1] (read-out: EC50 of protective effect against cell rounding). Besides, at TcdB (72 hours), the “changes in vital signs (clinical signs of toxin action)” value is given as “no significant changes in vital signs”. At TcdB (monitored three days), the survival rate is 100%. `COc1cccc(NC(=O)c2ccccc2[Se][Se]c2ccccc2C(=O)Nc2cccc(OC)c2)c1` [MG-56, 2,2′-diselane-1,2-diylbis[N-(3-methoxyphenyl)benzamide]] gave a pIC50 against TcdB protease of 5.40. `CCCCNC(=O)Cn1sc2nc(C)cc(C)c2c1=O` [STF 102686] gave a pIC50 on TcdB CPD of 5.70.

Consider `Cc1c(Cl)cccc1NC(=O)c1ccccc1[Se][Se]c1ccccc1C(=O)Nc1cccc(Cl)c1C` [MG-61, 2,2′-diselane-1,2-diylbis[N-(3-chloro-2-methylphenyl)benzamide]], for which the pIC50 at TcdB protease is 5.22. Compound `Cc1cc(C)c2c(=O)n(CC(=O)NCCc3ccc(Cl)cc3)sc2n1` [STF 102655] gave a pIC50 against TcdB CPD of 5.50.

These data come from patent US10172829B2 (priority 2014, dated 2019).
